{
  "source": "patent US10137202B2",
  "about": "(priority 2014, dated 2018)",
  "system": "HT1080 cells",
  "format": "cell-based, human",
  "conditions": "read-out: IC50 (CPA assay; nM)",
  "note": "Square brackets hold non-standard residues; d marks the D form. Peptide text beside a SMILES is read from it. * marks the point of attachment. Dolaproine = CO[C@@H]([C@@H]1CCCN1)[C@@H](C)C(=O)O; Dil = CC[C@H](C)[C@H](NC)[C@@H](CC(=O)O)OC; X3 = C[C@@H](N*)[C@@H](O)c1ccccc1; NMeV = CN[C@H](C(=O)O)C(C)C",
  "data": [
    {"smiles": "CC[C@H](C)[C@@H]([C@@H](CC(=O)N1CCC[C@H]1[C@H](OC)[C@@H](C)C(=O)N[C@H](C)[C@@H](O)c1ccccc1)OC)N(C)C(=O)[C@@H](NC(=O)[C@@H](NC)C(C)C)C(C)C", "note": "[MMAE, reference compound] (H-[NMeV]V[Dil][Dolaproine]-X3)", "values": [
      {"measurement": "IC50", "result": "0.1 to 0.6", "unit": "nM"}
    ]}
  ]
}
